Assay [1] deals with T1, proMMP9(20-445;ΔFnII) (SEQ ID NO:6) (Homo sapiens, UniProt P14780, DEL216-390).
T1 construct: start methionine (N); made in house; host or cells: E. coli BL21(DE3) RIL
T1 sequence (P14780 with tags, fused parts or gaps DEL216-390): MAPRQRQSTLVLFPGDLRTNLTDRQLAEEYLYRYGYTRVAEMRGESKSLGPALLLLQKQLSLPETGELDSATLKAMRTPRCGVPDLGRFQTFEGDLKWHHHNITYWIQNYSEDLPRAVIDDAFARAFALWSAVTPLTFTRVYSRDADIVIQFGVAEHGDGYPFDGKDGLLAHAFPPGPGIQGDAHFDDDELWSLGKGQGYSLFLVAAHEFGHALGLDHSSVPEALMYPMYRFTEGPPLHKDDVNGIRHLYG
Briefly: ThermoFluor binding assay with proMMP9(20-445;ΔFnII). Particulars: pH 7.0. Summed up:
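proMMP9(20-445;ΔFnII) at 2.8 μM with 50 μM 1,8-ANS in 50 mM HEPES pH 7.0, 100 mM NaCl, 0.001% Tween-20, 2.5 mM MgCl2, 300 μM CaCl2; compounds serially diluted in DMSO. Heated 40–90 °C at 1 °C/min, fluorescence read at 500±25 nm. Tm fit by standard equations; binding fit using DSC/TF-derived thermodynamic parameters.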

The target in assay [2] is T2, proMMP9(67-444;ΔFnII) (SEQ ID NO:5) (Homo sapiens, UniProt P14780, DEL216-390).
T2 construct: start methionine (N); made in house; host or cells: E. coli BL21(DE3) RIL
T2 sequence (P14780 with tags, fused parts or gaps DEL216-390): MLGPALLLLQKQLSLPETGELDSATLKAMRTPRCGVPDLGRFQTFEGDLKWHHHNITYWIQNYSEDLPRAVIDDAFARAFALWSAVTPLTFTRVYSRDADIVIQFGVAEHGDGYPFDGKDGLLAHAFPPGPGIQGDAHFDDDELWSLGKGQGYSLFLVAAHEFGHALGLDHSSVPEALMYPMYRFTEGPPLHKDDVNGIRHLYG
Briefly: ThermoFluor binding assay with proMMP9(67-444;ΔFnII). Particulars: pH 7.0. The method in brief: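 Thermal shift binding with 3.5 μM proMMP9(67-444;ΔFnII) and 50 μM 1,8-ANS in 50 mM HEPES pH 7.0, 100 mM NaCl, 2.5 mM MgCl2, 300 μM CaCl2, 0.001% Tween-20, with serially diluted compound. Heated 40 to 90° C at 1° C/min; fluorescence-derived Tm fitted using DSC/ThermoFluor thermodynamic parameters.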

Assay [3] has as its target T3, full-length proMMP9(1-707) (SEQ ID NO:1) (Homo sapiens, UniProt P14780, R574P).
T3 construct: made in house; host or cells: HEK293 (proMMP9, secreted); E. coli (MMP3)
Briefly: proMMP9/MMP3 P126 Activation Assay. The note with it: 20 nM proMMP9, 20 nM MMP3, 80 min 37° C. The assay is classed as biochemical. Here is the method: The reaction volume was 50 μL. […] Reactivity of residual MMP3 towards P-126 substrate was minimal under these conditions.

Assay [4] concerns the target proMMP13(1-268) (SEQ ID NO:7) (Homo sapiens, UniProt P45452). Description: ThermoFluor binding assay with proMMP13(1-268). Also noted: 6xHis (C); made in house. The note with it: pH 7.0. Here is the method:
The ThermoFluor® (TF) assay is a 384-well plate-based binding assay that measures thermal stability of proteins (Biomol Screen 2001, 6, 429-40; Biochemistry 2005, 44, 5258-66). The experiments were carried out using instruments available from Johnson & Johnson Pharmaceutical Research & Development, LLC. TF dye used in all experiments was […] (1,8-ANS) (Invitrogen: A-47).
Compounds were arranged in a pre-dispensed plate (Greiner Bio-one: 781280), wherein compounds were serially diluted in 100% DMSO across 11 columns within a series. Columns 12 and 24 were used as DMSO reference and contained no compound. For multiple compound concentration-response experiments, the compound aliquots ([…]) were robotically predispensed directly into black 384-well polypropylene PCR microplates (Abgene: TF-0384/k) using a Cartesian Hummingbird liquid handler (DigiLab, Holliston, Mass.). Following compound dispense, protein and dye solutions were added to achieve the final assay volume of 3 μL. The assay solutions were overlayed with 1 μL of silicone oil (Fluka, type DC 200: 85411) to prevent evaporation.
Assay plates were robotically loaded onto a thermostatically controlled PCR-type thermal block and then heated from 40 to 90° C. at a ramp-rate of 1° C./min for all experiments. Fluorescence was measured by continuous illumination with UV light (Hamamatsu LC6) supplied via fiber optics and filtered through a band-pass filter (380-400 nm; >6 OD cutoff). Fluorescence emission of the entire 384-well plate was detected by measuring light intensity using a CCD camera (Sensys, Roper Scientific) filtered to detect 500±25 nm, resulting in simultaneous and independent readings of all 384 wells. A single image with 20-sec exposure time was collected at each temperature, and the sum of the pixel intensity in a given area of the assay plate was recorded vs temperature and fit to standard equations to yield the Tm (J Biomol Screen 2001, 6, 429-40).
Thermodynamic parameters necessary for fitting compound binding for each proMMP were estimated by differential scanning calorimetry (DSC) and from ThermoFluor® data. The heat capacity of unfolding for each protein was estimated from the molecular weight and from ThermoFluor® dosing data.
The proMMP13(1-268) (SEQ ID NO:7) protein sample preparations included a desalting buffer exchange step via a PD-10 gravity column (GE Healthcare). The desalting buffer exchange was performed prior to diluting the protein to the final assay concentration of 3.5 μM. The concentration of proMMP13(1-268) (SEQ ID NO:7) was estimated spectrophotometrically based on a calculated extinction coefficient of ε280=37000 M^−1cm^−1, a calculated molecular weight of 30.8 kDa, and calculated pI of 5.33. ThermoFluor® reference conditions were defined as follows: 100 μg/mL proMMP13(1-268) (SEQ ID NO:7), 25 μM 1,8-ANS, pH 7.0 Buffer (50 mM HEPES pH 7.0, 100 mM NaCl, 0.001% Tween-20, 2.5 mM MgCl2, 300 μM CaCl2). The thermodynamic parameters for proMMP13(1-268) (SEQ ID NO:7) are as follows: Tm (° C.)=67 (+/−0.1), ΔUH(Tm) (cal mol^−1)=107000(+/−5000), ΔUS(Tm) (cal mol^−1 K^−1)=318, ΔUCp (cal mol^−1 K^−1)=2600.

pIC50, pKd: −log10 of the molar value. Counter-ions that a name gives are not always drawn. Some results are limits rather than exact numbers.

T3 sequence (P14780 20-707 R574P): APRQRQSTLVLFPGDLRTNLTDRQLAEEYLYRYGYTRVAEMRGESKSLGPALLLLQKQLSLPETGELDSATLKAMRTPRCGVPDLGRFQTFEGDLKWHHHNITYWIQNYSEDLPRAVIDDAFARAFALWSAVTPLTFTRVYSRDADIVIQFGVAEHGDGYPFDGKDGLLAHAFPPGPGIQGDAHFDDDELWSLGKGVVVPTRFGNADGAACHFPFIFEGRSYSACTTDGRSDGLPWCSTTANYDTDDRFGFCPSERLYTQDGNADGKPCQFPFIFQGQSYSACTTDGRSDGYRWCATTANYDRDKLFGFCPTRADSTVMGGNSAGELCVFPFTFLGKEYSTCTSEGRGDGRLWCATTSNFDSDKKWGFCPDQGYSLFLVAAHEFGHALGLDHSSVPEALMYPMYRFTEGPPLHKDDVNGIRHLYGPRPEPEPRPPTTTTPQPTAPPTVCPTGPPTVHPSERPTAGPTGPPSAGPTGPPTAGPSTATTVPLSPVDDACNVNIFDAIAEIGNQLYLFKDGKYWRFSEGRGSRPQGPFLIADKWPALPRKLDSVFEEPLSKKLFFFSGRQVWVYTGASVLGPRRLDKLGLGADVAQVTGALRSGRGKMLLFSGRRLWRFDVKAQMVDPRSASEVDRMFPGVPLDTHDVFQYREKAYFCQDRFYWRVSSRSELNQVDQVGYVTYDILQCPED

For `COc1ccc(C(N)=O)cc1Nc1nc(-c2sc(N)nc2C)cs1` [Example 5, 3-(2′-Amino-4′-methyl-[4,5′]bithiazolyl-2-ylamino)-4-methoxy-benzamide.HBr], the results for the pKd in assay [1], in assay [2] and in assay [4] were 6.57, 6.25 and 5.31, respectively. The molecule further showed a pIC50 in assay [3] of 6.07.
As for `CCOc1ccc(C(N)=O)cc1Nc1nc(-c2sc(C)nc2C)cs1` [Example 6, 3-(2′,4′-Dimethyl-[4,5′]bithiazolyl-2-ylamino)-4-ethoxy-benzamide.TFA], the pKd in assay [1] is 6.70; in assay [2], 6.24; in assay [4], 5.70. The molecule further gave a pIC50 in assay [3] of 6.80.
For `CCOc1ccc(C(N)=O)cc1Nc1nc(-c2sc(N)nc2C)cs1` [Example 7, 3-(2′-Amino-4′-methyl-[4,5′]bithiazolyl-2-ylamino)-4-ethoxy-benzamide], the pKd was 7.05 in assay [1], 6.47 in assay [2] and 5.85 in assay [4]. Also, the pIC50 in assay [3] is 6.59.
`CCOc1ccc(C(N)=O)cc1Nc1nc(-c2sc(NC(C)=O)nc2C)cs1` [Example 8, 3-(2′-Acetylamino-4′-methyl-[4,5′]bithiazolyl-2-ylamino)-4-ethoxy-benzamide.TFA]: the pKd in assay [1] was 5.89; in assay [2] it was 6.25; in assay [4] it was 4.41. The same molecule gave a negative logarithm of the IC50 (pIC50) in assay [3] of 7.00.
Turning to `CCCOc1ccc(C(N)=O)cc1Nc1nc(-c2sc(C)nc2C)cs1` [Example 13, 3-(2′,4′-Dimethyl-[4,5′]bithiazolyl-2-ylamino)-4-propoxy-benzamide], the pKd was 6.08 in assay [1], 5.29 in assay [2] and 5.15 in assay [4]. In assay [3], this molecule gave a pIC50 of 5.21.
As to `Cc1nc(C)c(-c2csc(Nc3cc(C(N)=O)ccc3OC3CCCC3)n2)s1` [Example 15, 4-Cyclopentyloxy-3-(2′,4′-dimethyl-[4,5′]bithiazolyl-2-ylamino)-benzamide], the negative-log Kd (pKd) in assay [1] is 5.10; in assay [2], < 4.02; in assay [4], 4.89. In addition, the pIC50 in assay [3] is < 4.70.
For `Cc1nc(C)c(-c2csc(Nc3cc(C(N)=O)ccc3OC(F)(F)F)n2)s1` [Example 17, 3-(2′,4′-Dimethyl-[4,5′]bithiazolyl-2-ylamino)-4-trifluoromethoxy-benzamide], in that order: 7.09, 6.14, 4.92 and 6.34.
Turning to `COc1ccc(C(N)=O)cc1Nc1nc(-c2sc(C)nc2C)cs1` [Example 18, 3-(2′,4′-Dimethyl-[4,5′]bithiazolyl-2-ylamino)-4-methoxy-benzamide.HBr], the pKd in assay [1] was 6.47; in assay [2], 6.08; in assay [4] it was 4.85. The same molecule had a pIC50 in assay [3] of 6.16.
Consider `Cc1ccc(C(N)=O)cc1Nc1nc(-c2sc(N)nc2C)cs1` [Example 25, 3-(2′-Amino-4′-methyl-[4,5′]bithiazolyl-2-ylamino)-4-methyl-benzamide.HBr], for which the pKd in assay [1] was 5.57; in assay [2], 5.17; in assay [4], 4.51. The molecule also gave a pIC50 in assay [3] of 5.34.
Turning to `CC(=O)Nc1nc(C)c(-c2csc(Nc3cc(C(N)=O)ccc3Cl)n2)s1` [Example 26, 3-(2′-Acetylamino-4′-methyl-[4,5′]bithiazolyl-2-ylamino)-4-chloro-benzamide.HBr], the results for the negative-log Kd (pKd) in assay [1], in assay [2] and in assay [4] were 5.05, 5.52 and 4.08, respectively. The pIC50 in assay [3] is < 4.70.
Consider `Cc1nc(C)c(-c2csc(Nc3cc(C(N)=O)ccc3OCC(C)C)n2)s1` [Example 28, 3-(2′,4′-Dimethyl-[4,5′]bithiazolyl-2-ylamino)-4-isobutoxy-benzamide], for which the pKd in assay [1] was 4.96; in assay [2] it was < 4.02; in assay [4] it was 4.25. In addition, the pIC50 in assay [3] is < 4.70.

A word on the pKd: it is the Kd on a negative log10 scale, so that one unit is a factor of ten. Usually pIC50 stands for the negative decadic logarithm of the IC50, by convention in mol/L. Low readings indicate a high IC50, high ones a low IC50.

Values taken from patent US20120129842A1, “BISTHIAZOLE INHIBITORS OF PRO-MATRIX METALLOPROTEINASE ACTIVATION” (priority 2010, published 2012).
